According to BindingDB's records for PubMed 11082457 (Centre De Recherches De Croissy, 2000):
Several values for one entry are separate records, joined by “and”; a condition that tells them apart may be missing. Equal entries are not always repeated.

Columns and labels:
[1] = target: T1, Alpha-2C adrenergic receptor (Homo sapiens, UniProt P18825)
T1 sequence (P18825 whole entry): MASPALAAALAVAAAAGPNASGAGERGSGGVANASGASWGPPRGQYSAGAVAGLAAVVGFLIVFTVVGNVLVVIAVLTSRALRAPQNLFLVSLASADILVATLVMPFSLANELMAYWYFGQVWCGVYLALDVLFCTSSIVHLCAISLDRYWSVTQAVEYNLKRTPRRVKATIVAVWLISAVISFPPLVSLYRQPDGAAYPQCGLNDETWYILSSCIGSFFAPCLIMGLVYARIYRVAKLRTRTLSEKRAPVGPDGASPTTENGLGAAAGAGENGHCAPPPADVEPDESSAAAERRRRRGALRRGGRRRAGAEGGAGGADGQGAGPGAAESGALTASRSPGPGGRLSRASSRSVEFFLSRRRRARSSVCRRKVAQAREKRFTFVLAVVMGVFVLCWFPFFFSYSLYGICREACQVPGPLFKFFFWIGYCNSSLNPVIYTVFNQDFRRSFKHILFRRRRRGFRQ

[2] = target: T2, Alpha-2A adrenergic receptor [16-465] (Rattus norvegicus, UniProt P22909)
T2 construct: 16-465
T2 sequence (P22909 whole entry): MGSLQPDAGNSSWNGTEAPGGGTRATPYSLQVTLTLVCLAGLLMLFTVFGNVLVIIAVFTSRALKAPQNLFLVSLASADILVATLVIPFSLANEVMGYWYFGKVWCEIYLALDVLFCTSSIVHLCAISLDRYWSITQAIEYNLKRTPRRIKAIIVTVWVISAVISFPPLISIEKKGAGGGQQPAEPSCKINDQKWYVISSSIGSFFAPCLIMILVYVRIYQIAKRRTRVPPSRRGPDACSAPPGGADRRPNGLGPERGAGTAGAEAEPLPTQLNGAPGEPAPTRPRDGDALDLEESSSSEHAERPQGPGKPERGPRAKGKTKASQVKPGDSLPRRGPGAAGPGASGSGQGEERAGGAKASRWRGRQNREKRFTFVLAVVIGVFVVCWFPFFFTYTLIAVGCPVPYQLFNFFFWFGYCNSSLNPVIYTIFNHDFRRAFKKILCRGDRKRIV

[3] = target: T3, Alpha-2A adrenergic receptor (Homo sapiens, UniProt P08913)
T3 sequence (P08913 whole entry): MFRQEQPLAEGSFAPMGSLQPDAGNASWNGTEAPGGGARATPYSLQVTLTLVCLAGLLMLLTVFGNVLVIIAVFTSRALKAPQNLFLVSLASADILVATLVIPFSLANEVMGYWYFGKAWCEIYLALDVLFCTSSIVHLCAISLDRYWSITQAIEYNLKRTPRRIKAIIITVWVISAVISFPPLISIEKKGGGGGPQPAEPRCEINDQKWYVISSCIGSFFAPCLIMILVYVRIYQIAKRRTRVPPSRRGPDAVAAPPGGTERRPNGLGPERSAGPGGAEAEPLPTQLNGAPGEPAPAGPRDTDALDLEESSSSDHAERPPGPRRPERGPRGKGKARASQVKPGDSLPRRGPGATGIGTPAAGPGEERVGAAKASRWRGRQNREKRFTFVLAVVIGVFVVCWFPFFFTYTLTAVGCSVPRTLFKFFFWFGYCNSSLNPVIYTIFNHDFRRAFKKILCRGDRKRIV

Structure (SMILES) | Ki [1] | Ki [2] [nM] | Ki [3]
Cc1cccc([C@@H](C)c2cnc[nH]2)c1C | 15.1 nM and 2.51 nM |  | 
NC1=NC2(CCc3ccccc3C2)CO1 (stereo not drawn) [S18616] |  | 0.251 | 0.562 nM and 0.631 nM and 0.316 nM
